From patent publication US6358967B1, “Ergoline amine derivatives with blood pressure lowering effect” (priority 1998, dated 2002)

What was measured:
[1] = system: normotensive Wistar rats after pretreatment with Ecolid; experiment: Blood pressure testing after blockade of autonomic nerve tracts with Ecolid; type: in vivo, rat; conditions: Table 2; for Effect pressure/duration: duration: assessment class of duration; for Effect pressure/duration: duration / Effect pressure/duration: pressure: after Ecolid; for Effect pressure/duration: duration / Effect pressure/duration: pressure / Heart rate / Duration: 0.5 mg/kg i.v.; for Effect pressure/duration: pressure: assessment class of pressure fall; for Heart rate: change shown as arrow; for Heart rate / Duration: rats pretreated with Ecolid; for Diastol. pressure / Mean pressure / Systol. pressure: effect (fall) on arterial blood pressure, Wistar rats pretreated with Ecolid 0.5 mg/kg i.v., test substance 0.5 mg/kg i.v.
From the text: Ecolid is a ganglionic blocker which competitively blocks the postsynaptic cholinergic (nicotinergic) receptors in the autonomic ganglia. This interrupts neurotransmission in the ganglia in both the para-sympathetic and sympathetic regions of the autonomic nervous system. The consequence thereof is, inter alia, a fall in blood pressure. It is possible in this way to differentiate central and peripheral (i.e. direct points of action on the smooth muscles) effects.
The experimental animals used were male Wistar rats with a BW of 300-450 g. The rats are anesthetized immediately before the experiment with 70 mg/kg inactin i.v. PE tubes are tied into the carotid artery and femoral vein.
(§1) To maintain the blood pressure and to prevent formation of thrombi in the PE tubes of the blood vessels, each hour 2.5 ml of heparinized 0.9% strength NaCl solution are infused through the femoral vein and 1.2 ml through the carotid artery.
Before testing the ergoline derivatives, the experimental animals were treated with Ecolid (dose: 0.5 mg/kg, i.v.).
(§2) The ergoline derivatives are administered i.v. through the femoral vein as 5 percent EtOH/NaCl (0.9%) solution, 1 ml/kg in a dosage of 0.5 mg/kg test substance.
The time stated in the table corresponds to the period between administration of Ecolid and injection of the test substances.

normotensive Wistar rats = experiment: Invasive blood pressure measurement in anesthetized rats, i.v. administration; type: in vivo, rat; conditions: 0.5 mg/kg i.v., Table 1.1; for Effect pressure/duration: duration: assessment class of duration; for Effect pressure/duration: pressure: assessment class of pressure fall; for Heart rate: change shown as arrow; for Heart rate / Duration: Wistar rats; for Duration: duration of blood pressure effect; for Diastol. pressure / Mean pressure / Systol. pressure: effect (fall) on arterial blood pressure, anesthetized Wistar rats
Procedure: Male Wistar rats with a body weight (BW) of 300-450 g were used as experimental animals. The rats are anesthetized immediately before the experiment with 50 mg/kg pentobarbital Na intraperitoneally (i.p.) or 70 mg/kg inactin i.v. PE tubes are tied into the carotid artery and femoral vein.
as §1
The arterial blood pressure is measured invasively using a PONEMAH hemodynamic analyzer (HSE, March, Germany). Via the tube in the carotid artery, the arterial blood pressure is mechanoelectrically converted in a Statham transducer (ISOTEC), amplified in a Plugsys (DBA module, type 660), digitized in an A/D converter and input into the PC memory over defined time intervals. The values in the memory are then treated with an adapted algorithm in order to establish the blood pressure parameters to be calculated for heart rate, systolic, diastolic and mean blood pressure.
as §2

Compound	Effect pressure/duration: duration [1]	Effect pressure/duration: pressure [1]	Heart rate [1]	Diastol. pressure [1]	Mean pressure [1]	Systol. pressure [1]	Duration [1]	Effect pressure/duration: duration (normotensive Wistar rats)	Effect pressure/duration: pressure (normotensive Wistar rats)	Heart rate (normotensive Wistar rats)	Duration (normotensive Wistar rats)	Diastol. pressure (normotensive Wistar rats)	Mean pressure (normotensive Wistar rats)	Systol. pressure (normotensive Wistar rats)
CN1CC(CNC(=O)C2CCC(C(=O)NCc3cccc(CN)c3)CC2)CC2c3cccc4[nH]cc(c34)CC21.O=C(O)C(F)(F)F.O=C(O)C(F)(F)F (mixture of isomers) [Substance 9703131]	↓↓↓/↓↓↓ (> 30 min)	↓↓↓/↓↓↓ (> 30%)	→	40.4%	32.4%	32.9%	>60 min	↓↓↓/↓↓↓ (>30 min)	↓↓↓/↓↓↓ (>30%)	→	>240 min	55.2%	51.6%	47.5%
CN1C[C@H](CN2CCC(=O)NC2=O)C[C@@H]2c3cccc4[nH]cc(c34)C[C@H]21 [Dihydro-1-[[6-methyl-ergolin-8b-yl]-methyl]2,4-(1H, 3H)-pyrimidinedione, reference compound]	→/→ (no effect to 5%)	→/→ (no effect to 5%)	→	0%	0%	0%	0 min	↓ (up to 10 min)	↓↓↓ (>30%)	→	ca 10 min	75.9%	72.3%	70.9%
C[N+](C)(C)CC[N+]1(C)Cc2c(Cl)c(Cl)c(Cl)c(Cl)c2C1.[Cl-].[Cl-] [Ecolid, reference compound]	↓↓↓/↓↓↓ (> 30 min)	↓↓↓/↓↓↓ (> 30%)	→	54.7%	50.4%	52.6%								
CN1CC(CNC(=O)c2ccc(C(=O)NCc3cccc(CN)c3)cc2)CC2c3cccc4[nH]cc(c34)CC21.O=C(O)C(F)(F)F.O=C(O)C(F)(F)F (stereo not drawn) [Substance 9703126]	↓↓↓/↓↓↓ (> 30 min)	↓↓↓/↓↓↓ (> 30%)	→	48.7%	43.7%	36.4%	>120 min	↓↓↓/↓↓↓ (>30 min)	↓↓↓/↓↓↓ (>30%)	→	>60 min	63.0%	60.0%	55.0%
